In US11090292B2, “Compositions and methods of use of an inappetance-controlling compound” (Aratana Therapeutics, Inc., priority 2012, dated 2021):

What was measured:
[1] = Example 1 seven-day dosing regimen study: food consumption and body weight; assay type: in vivo, Beagle dogs
Procedure: A controlled, seven-day study was performed to assess the impact of different capromorelin-dosing regimens on the production of insulin-like growth factor 1 (hereinafter “IGF-1”), growth hormone (hereinafter “GH”), and cortisol. The different capromorelin-dosing regimens were also assessed for the impact on food intake and changes in body mass.
Eighteen adult non-naïve Beagle dogs (nine males and nine females) were divided into one of three treatment groups. Each of the three treatment groups included three males and three females. Group A, which was the control group, was dosed twice per day, via oral gavage, with a vehicle (deionized water alone) and was used as a baseline data point for comparison against the active treatment regimens. Group B comprised an active treatment group that received two treatments per day, via oral gavage, with a capromorelin-containing composition with a concentration of 3 mg/kg capromorelin per treatment. Finally, Group C comprised an active treatment group that received one treatment per day, via oral gavage, with a capromorelin-containing composition with a concentration of 6 mg/kg capromorelin per treatment.
During the ten day study period, on an at least once-daily basis, each of the dogs was monitored for clinical observations, mortality, morbidity, body mass, and food consumption. Serum samples were taken to measure capromorelin concentration, GH concentration, IGF-1 concentration, and cortisol concentration. Serum samples were taken on days 1, 2, 4, and 7 at −15 minutes (pre-dose), immediately prior to dosing (0 minutes) and 30, 45, 60, 90, 120, 240, 360, and/or 480 minutes post dosing. Additional blood samples were taken at 8 AM on Day 10 of the study to assess long-term impact of the active treatments.

IGF-1 = test: Example 9: serum IGF-1 concentration; assay type: in vivo, cats
Procedure: (§1) A four-day study was performed to further assess the pharmacokinetics of formulation 8 from Example 3 (i.e., the most “well-accepted” formulation) in cats. Moreover, the administration of formulation 8 was also analyzed to determine if administration of this formulation could induce sustained production of IGF-1 and relatively depressed, mitigated, or lower levels of cortisol. The different capromorelin-dosing regimens were also assessed for the impact on food intake and changes in body mass.
(§2) Twenty-four adult cats were divided into one of four treatment groups, with all four groups as active treatment groups. Each of the active treatment groups included 6 cats. The first group received a sterile injection of a capromorelin composition containing a 0.75 mg/kg concentration of capromorelin once per day during the four-day experiment. The second group received a once-daily sterile injection of a capromorelin composition at a concentration of 2 mg/kg. The third group received a once-daily dose of a capromorelin composition at a concentration of 2 mg/kg, via oral gavage. The fourth group received a once-daily dose of a capromorelin composition containing capromorelin at a concentration of 4 mg/kg, via oral gavage.
During the seven day study period, on an at least once-daily basis, each of the cats was monitored for clinical observations, mortality, moribundity, body mass, acceptability/palatability, and food consumption. Serum samples were taken to measure capromorelin concentration, IGF-1 concentration, and cortisol concentration. Serum samples were taken on days 1 and 4 immediately prior to dosing (0 minutes) and 30, 60, 90, 120, 240, 360, and/or 480 minutes post dosing. Additional serum samples were taken at 8 AM on Day 7 of the study to assess long-term impact of the active treatments.

[2] = Example 5 seven-day study with flavored Formulation 9: food consumption and body weight; assay type: in vivo, Beagle dogs; conditions: for more food consumed, Day 7 compared with Day −1: oral syringe, Formulation 9
Procedure: In order to further refine the dosing regimen that would provide an appropriate blood profile of capromorelin and desired results from the perspective of increased food intake and weight gain, an additional series of experiments were conducted. In these experiments, twenty-four adult (male and female) Beagle dogs weighing approximately 9 to 13 kilograms were randomly divided into four groups. Group 1 received a placebo formulation, without any active compound, two times per day; Group 2 received a composition comprising 3 mg/kg of body weight of capromorelin one time per day; Group 3 received a composition comprising 4.5 mg/kg of body weight of capromorelin one time per day; and Group 4 received a composition comprising 3 mg/kg of body weight of capromorelin two times per day.
In particular, on the first day of dosing, Day 1, through the last day of dosing, Day 7, the compositions were orally administered (i.e., using a syringe) to the animals in a flavored formulation of the following composition: […]
In these experiments, the animals were orally administered the flavored formulation at approximately 8:00 AM and, for Group 4 only, again at 6:00 PM. The animals were fed at 10:00 AM beginning seven days prior to Day 1 and continuing for the duration of the study. The animals were offered twice the normal amount of food. Approximately two hours after the food offering, the remainder was removed and weighed to assess food intake. This restricted feeding regime was started at Day −7 to allow the animals to transition to a normal feed intake before the study was initiated. Food consumption was calculated and recorded on Days −7 through Day 7. Baseline food consumption was calculated for each individual dog as the average number of grams of food consumed on Days −3, −2, and −1. The study period food consumption was calculated for each individual dog as the average of Days 1 through 7. Body weights were collected on Days −1, 3, and 7. Blood was collected for measurements of capromorelin, growth hormone, cortisol, and IGF-1 concentrations on Days 1, 4, and 7 at about 15 minutes pre-administration, immediately prior to dosing (0 minutes), 30, 45, 60, 90, 120, 240, 360, and/or 480 minutes post dosing via the jugular or other accessible vessel. As reflected by the data in FIGS. 61-74, the animals' response to the capromorelin-containing composition is largely in accord with the results discussed above.

[3] = Example 9: capromorelin concentration in serum; assay type: in vivo
Procedure: as §1
as §2, with “The fourth group received a once-daily dose of a capromorelin composition containing capromorelin at a concentration of 4 mg/kg, via oral gavage.” left out
During the seven day study period, on an at least once-daily basis, each of the cats was monitored for clinical observations, mortality, moribundity, body mass, acceptability/palatability, and food consumption. […]

[4] = oral gavage, once-daily 6 mg/kg or twice-daily 3 mg/kg, 7 days

Structure (SMILES): CN1N=C2CCN(C(=O)[C@@H](COCc3ccccc3)NC(=O)C(C)(C)N)C[C@@]2(Cc2ccccc2)C1=O.O=C(O)C(O)C(O)C(=O)O [capromorelin]
- increase in weight over the seven day treatment period ([1]; male dogs, once-daily 6 mg/kg or twice-daily 3 mg/kg oral gavage): 4-5%
- food consumed relative to dogs receiving deionized water only [1, 4]: consumed more food
- weight gain relative to dogs receiving deionized water only [1, 4]: gained more weight
- increase in serum IGF-1 concentration at eight hours post administration relative to time 0 (IGF-1; 0.75 mg/kg sterile injectable, day 1): approximately 39.8%
- increase in serum IGF-1 concentration at eight hours post administration relative to time 0 (IGF-1; 0.75 mg/kg sterile injectable, day 4): approximately 12.2%
- increase in serum IGF-1 concentration at eight hours post administration relative to time 0 (IGF-1; 2 mg/kg oral, day 1): approximately 26.6%
- increase in serum IGF-1 concentration at eight hours post administration relative to time 0 (IGF-1; 2 mg/kg oral, day 4): approximately 7.6%
- increase in serum IGF-1 concentration at eight hours post administration relative to time 0 (IGF-1; 2 mg/kg sterile injectable, day 1): ~43.1%
- increase in serum IGF-1 concentration at eight hours post administration relative to time 0 (IGF-1; 2 mg/kg sterile injectable, day 4): ~10.8%
- increase in serum IGF-1 concentration at eight hours post administration relative to time 0 (IGF-1; 4 mg/kg oral, day 1): ~30.8%
- increase in serum IGF-1 concentration at eight hours post administration relative to time 0 (IGF-1; 4 mg/kg oral, day 4): ~0.7%
- Comparison of Weight on Day −1 to Weight on Day 7 (X ± SD, %) ([2]; Group 2, 3 mg/kg 1x per day): 4.52 ± 1.67%
- more food consumed, Day 7 compared with Day −1 ([2]; Group 2, 3 mg/kg one time per day): 42.7%
- Comparison of Weight on Day −1 to Weight on Day 7 (X ± SD, %) ([2]; Group 3, 4.5 mg/kg 1x per day): 3.78 ± 2.93%
- more food consumed, Day 7 compared with Day −1 ([2]; Group 3, 4.5 mg/kg one time per day): 34.5%
- Comparison of Weight on Day −1 to Weight on Day 7 (X ± SD, %) ([2]; Group 4, 3 mg/kg 2x per day): 4.17 ± 1.35%
- more food consumed, Day 7 compared with Day −1 ([2]; Group 4, 3 mg/kg two times per day): 31.5%
- levels of capromorelin in the serum ([3]; oral formulations): relatively low levels of capromorelin in the serum
- time post administration of peak capromorelin concentration in the serum ([3]; sterile injectable formulation): about 0.5 h
